The numbers were not newly measured in US10603330B2, “Arginase inhibitors as therapeutics” (Mars, Incorporated, priority 2010, dated 2020), which cites them from elsewhere.

The subject of series [1] is central airways responsiveness. The conditions noted are these: murine chronic asthma model.
Series [2] concerns bacterial arginase (H. pylori). The conditions noted are these: inhibition of bacterial arginase.
The subject of the next series is blood pressure. Conditions: spontaneously hypertensive animals.
A further series relates to EAE. Conditions: animals undergoing experimental autoimmune encephalomyelitis.

Consider `N[C@@H](CSCCB(O)O)C(=O)O` [S-(2-boronoethyl)-L-cysteine], for which, in series [1], the “methacholine induced responsiveness of the central airways” value is given as “attenuated”. For the compound `NC(=NCCC[C@H](N)C(=O)O)NO` [NOHA], the “CD3 expression on T-cells” value in series [2] is listed as “reestablished CD3 expression on T-cells”. With `N=C(NO)NCC[C@H](N)C(=O)O` [nor-NOHA, N^ω-hydroxy-nor-L-arginine], the blood pressure entry in the series on blood pressure is listed as “lowered blood pressure”. Consider `NC(CCCCB(O)O)C(=O)O` (stereo not shown) [ABH, amino-6-boronohexanoic acid], for which the “severity of EAE vs control animals” value with EAE was “much milder form of EAE”.
